Data published in patent publication US20250275953A1, “VODOBATINIB FOR REDUCING PROGRESSION OF PARKINSON'S DISEASE” (Sun Pharma Advanced Research Company Ltd., priority 2022, published 2025).
Read-outs that look alike come from different tables or passages of the source.

What was measured:
[1] = CSF pharmacokinetics on Day 7, healthy volunteers; format: in vivo, human; settings: for CSF AUC0-24 AM / CSF AUC0-24 GM / CSF AUC0-24 Median / CSF Cmax AM / CSF Cmax GM / CSF Cmax Median / Tmax: Day 7, CSF, healthy volunteers; for Cmax, CSF/IC50: IC50 0.9 nM; for Tmax: male, human, CSF, oral
Method: CSF Assessment: On the morning of Day 7, local anesthetic (e.g., lidocaine 2% with epinephrine) was administered subcutaneously at the site of lumbar puncture. An indwelling intrathecal catheter was inserted at the lumbar region (L3-L5) by a trained and experienced anesthesiologist (i.e., using an epidural tray, 17G or 20/22G Tuohy needle and catheter over needle system). A CSF sample was collected for safety labs (i.e., cell count, glucose, protein). Serial CSF samples were then collected through the spinal catheter and tubing connected to a fractional collection system (i.e., peristaltic pump). The CSF samples (8 mL) were collected at a flow rate of 0.5 mL/min over a 16-minute period at pre-dose, and at 0.5 h, 1.0 h, 1.5 h, 2 h, 2.5 h, 3 h, 4 h, 6 h, 8 h, 12 h and 24 h post-dose. The first 2 mL of CSF was discarded, and the 6 mL remainder was used for the PK study.
The plasma and CSF samples were analyzed, by validated LC/MS-MS methods. PK analysis was conducted based on PK/PP Population: Cmax, AUC0-t, AUC0-24, AUC0-∞, Tmax, Cavg, CL/F, Cmin, t1/2, Kel, Vd (V/F; Vd/F), and Vss/F. Model-independent plasma PK parameters (Cmax, Tmax, t1/2, AUC0-t, AUC0-24, AUC0-∞, Cavg, CL/F, Vss/F, Vd/F), after the first dose (Day 1) and last dose (Day 7), Cmin on Days 2-7) was listed by subject and summarized by study cohort. In addition to the descriptive statistics listed above, geometric means was reported for the pivotal PK endpoints (CL/F, Vss/F, Vd/F, Cmin, Cavg, AUC0-t, AUC0-24, AUC0-∞, and Cmax). For CSF, PK parameters (Cmax, Tmax, t1/2, AUC0-t, AUC0-24, Cmin, Cavg, CL/F, Vss/F) was listed by subject and summarized by cohort. Ratios of CSF: plasma concentration at each time point was listed by subject and summarized by study cohort.
Forty-one healthy adult male volunteers aged 18 to 45 with body mass indexes (BMI)≥18 to ≤30 Kg/m^2 and total body weight >50 kg (110 lb) were screened in order to enroll 19 subjects with an average age of 34.2 years (range 21.5-45.6 years) into this study Six participants were randomly assigned to the 48 and 192 mg cohorts, and seven participants were assigned to the 384 mg cohort. After an overnight fast, participants received once daily doses of vodobatinib as capsules for 7 days. Serial PK blood samples to measure vodobatinib plasma concentrations were collected at pre-dose and at 0.25, 0.5, 1, 1.5, 2, 2.5, 3, 4, 6, 8, 12, 16 and 24 h post-dose after the first dose on Day 1 and the last dose on day 7. Additional PK samples prior to the morning doses were taken on Days 3-6. On the morning of Day 7, prior to dosing, an indwelling intrathecal catheter was inserted in the lumbar region (L3-L5). Serial CSF samples were collected through the catheter connected via peristaltic pump to a fraction collector. At each designated CSF collection time point, 8 mL of CSF was collected at a flow rate of 0.5 mL/min over a 16-min period at pre-dose, and 0.5, 1.0, 1.5, 2, 2.5, 3, 4, 6, 8, 12 and 24 h post-dose. The first 2 mL of CSF was discarded, and the remaining 6 mL was used for the vodobatinib assay. The occurrence of treatment-emergent adverse events (TEAEs) and serious AEs (SAEs) reported through the completion of study were collected. Clinical laboratory parameters, vital signs and physical examination data and electrocardiogram (ECG) were collected and evaluated relative to baseline values.

[2] = target: Arg (Homo sapiens, UniProt P42684); assay: Biochemical kinase assay
Sequence of Arg (P42684 whole entry): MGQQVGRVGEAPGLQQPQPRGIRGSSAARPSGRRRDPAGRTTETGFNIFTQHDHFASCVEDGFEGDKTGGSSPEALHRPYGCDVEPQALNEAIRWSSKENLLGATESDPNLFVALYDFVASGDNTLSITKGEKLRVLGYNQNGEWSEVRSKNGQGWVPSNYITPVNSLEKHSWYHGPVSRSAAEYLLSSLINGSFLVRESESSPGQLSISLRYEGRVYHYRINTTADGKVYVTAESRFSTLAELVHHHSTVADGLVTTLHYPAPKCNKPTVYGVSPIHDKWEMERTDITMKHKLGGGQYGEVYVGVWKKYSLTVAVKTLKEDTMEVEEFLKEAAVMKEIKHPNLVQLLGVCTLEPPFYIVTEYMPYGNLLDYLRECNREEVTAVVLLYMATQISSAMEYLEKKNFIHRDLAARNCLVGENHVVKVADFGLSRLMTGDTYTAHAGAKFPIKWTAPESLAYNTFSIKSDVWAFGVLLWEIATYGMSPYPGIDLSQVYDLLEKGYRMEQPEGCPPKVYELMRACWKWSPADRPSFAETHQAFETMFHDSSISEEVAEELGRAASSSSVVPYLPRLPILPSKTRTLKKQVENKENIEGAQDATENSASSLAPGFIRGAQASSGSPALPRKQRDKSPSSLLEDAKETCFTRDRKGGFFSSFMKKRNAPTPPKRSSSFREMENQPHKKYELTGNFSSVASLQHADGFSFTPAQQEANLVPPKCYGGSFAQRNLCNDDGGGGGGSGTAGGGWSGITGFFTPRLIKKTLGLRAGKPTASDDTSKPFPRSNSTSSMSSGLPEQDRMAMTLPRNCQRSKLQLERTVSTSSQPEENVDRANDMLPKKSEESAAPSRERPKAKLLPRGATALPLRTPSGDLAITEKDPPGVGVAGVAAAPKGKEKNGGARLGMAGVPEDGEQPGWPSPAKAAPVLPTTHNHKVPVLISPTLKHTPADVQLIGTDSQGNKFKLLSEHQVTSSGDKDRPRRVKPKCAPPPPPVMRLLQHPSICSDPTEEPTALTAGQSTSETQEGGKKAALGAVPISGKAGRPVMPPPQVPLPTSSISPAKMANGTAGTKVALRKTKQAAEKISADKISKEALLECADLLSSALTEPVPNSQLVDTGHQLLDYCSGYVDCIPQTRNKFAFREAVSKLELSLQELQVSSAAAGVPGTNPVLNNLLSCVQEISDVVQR
Source text: (§1) Conventional biochemical kinase assays, using radioactivity and fluorescence as readouts, were used to derive half maximal-inhibitory concentrations (IC50) values.

[3] = target: Abl (T315I) (Homo sapiens, UniProt P00519, T315I); assay: Biochemical kinase assay, gatekeeper mutant Abl
Source text: as §1

[4] = Exposure on transition from capsule to powder, phase 2 study in early PD; format: in vivo, human; settings: on average
Method: A phase 2, randomized, double-blind, placebo-controlled study of vodobatinib in approximately 504 subjects with early Parkinson's disease is ongoing. The subjects are being administered a low dose (96 mg capsule or 192 mg powder of vodobatinib) or high dose (192 mg capsule or 384 mg powder of vodobatinib). The subjects are initially administered the capsule and then transitioned to the powder. […] The objective of the study is to determine if vodobatinib reduces the rate of progression of early-stage Parkinson's disease over 40 weeks, as defined by the sum of the MDS-UPDRS (Movement Disorder Society-Unified Parkinson's Disease Rating Scale) Parts 2 and 3 scores.

[5] = 48 mg, Day 7, Healthy Volunteers
[6] = 192 mg, Day 7, Healthy Volunteers
[7] = 384 mg, Day 7, Healthy Volunteers

In the case of `Cc1ccc(C(=O)NNC(=O)c2c(C)cccc2Cl)cc1C#Cc1cnc2ccccc2c1` [N′-(2-chloro-6-methylbenzoyl)-4-methyl-3-[2-(3-quinolyl)ethynyl]-benzohydrazide], the “CSF AUC0-24” value ([1]; 48 mg, Day 7) is reported as 18.3 nM·h, the “CSF AUC0-24 AM” value ([1]; 48 mg) is reported as 0.01 µg·h/mL and the “CSF AUC0-24 GM” value ([1]; 48 mg) is reported as 0.0089 µg·h/mL. The “CSF AUC0-24 Median” value ([1]; 48 mg) was 0.0101 µg·h/mL, the “CSF Cmax AM” value ([1]; 48 mg) was 0.8 ng/mL and the “CSF Cmax GM” value ([1]; 48 mg) was 0.7 ng/mL. The “CSF Cmax Median” value ([1]; 48 mg) was 0.8 ng/mL, the “CSF AUC0-24” value [1, 5] was 0.01 µg·h/mL and the “Cavg, CSF” value [1, 5] was “(0.9 nM)”. The “Cmax, CSF” value [1, 5] was “(1.8 nM)”, the “Cmax, CSF” value ([1]; 48 mg, Day 7, Healthy Volunteers, Table 11A) was 0.8 ng/mL and the “Cmax, CSF/IC50” value [1, 5] was 2.0. The “Cavg, CSF” value ([1]; 48 mg, Day 7, Healthy Volunteers, estimated as AUC(0-24)/24) was 0.42 ng/mL, the “CSF concentrations at 2-3 h” value ([1]; 48 mg, healthy subjects) was 0.5 to 0.7 ng/mL and the “CSF AUC0-24” value ([1]; 192 mg, Day 7) was 130.4 nM·h. For the same compound, the “CSF AUC0-24 AM” value ([1]; 192 mg) was 0.0745 µg·h/mL, the “CSF AUC0-24 GM” value ([1]; 192 mg) was 0.0592 µg·h/mL and the “CSF AUC0-24 Median” value ([1]; 192 mg) was 0.0645 µg·h/mL. For the same compound, the “CSF Cmax AM” value ([1]; 192 mg) was 5.2 ng/mL, the “CSF Cmax GM” value ([1]; 192 mg) was 4.6 ng/mL and the “CSF Cmax Median” value ([1]; 192 mg) was 5.2 ng/mL. For the same compound, the “CSF AUC0-24” value [1, 6] was 0.0745 µg·h/mL, the “Cavg, CSF” value [1, 6] was “(6.8 nM)” and the “Cmax, CSF” value [1, 6] was “(11.5 nM)”. The “Cmax, CSF” value ([1]; 192 mg, Day 7, Healthy Volunteers, Table 11A) was 5.2 ng/mL, the “Cmax, CSF/IC50” value [1, 6] was 13 and the “Cavg, CSF” value ([1]; 192 mg, Day 7, Healthy Volunteers, estimated as AUC(0-24)/24) was 3.3 ng/mL. The “CSF AUC0-24” value ([1]; 384 mg, Day 7) was 120.1 nM·h, the “CSF AUC0-24 AM” value ([1]; 384 mg) was 0.0587 µg·h/mL and the “CSF AUC0-24 GM” value ([1]; 384 mg) was 0.0545 µg·h/mL. The “CSF AUC0-24 Median” value ([1]; 384 mg) was 0.06 µg·h/mL, the “CSF Cmax AM” value ([1]; 384 mg) was 5.5 ng/mL and the “CSF Cmax GM” value ([1]; 384 mg) was 5.4 ng/mL. For the same compound, the “CSF Cmax Median” value ([1]; 384 mg) was 5.1 ng/mL, the “CSF AUC0-24” value [1, 7] was 0.0587 µg·h/mL and the “Cavg, CSF” value [1, 7] was “(5.3 nM)”. For the same compound, the “Cmax, CSF” value [1, 7] was “(12.3 nM)”, the “Cmax, CSF” value ([1]; 384 mg, Day 7, Healthy Volunteers, Table 11A) was 5.5 ng/mL and the “Cmax, CSF/IC50” value [1, 7] was 14. For the same compound, the “Cavg, CSF” value ([1]; 384 mg, Day 7, Healthy Volunteers, estimated as AUC(0-24)/24) was 2.4 ng/mL, the “quantifiable CSF concentrations” value ([1]; Day 7, 3 dose cohorts) was “observed in all subjects” and the Tmax ([1]; 48 mg, read-out: CSF Tmax Median) was 3 h. It also gave a Tmax ([1]; 48 mg, read-out: CSF Tmax Min, Max) of 3 to 6.02 h, a Tmax ([1]; 192 mg, read-out: CSF Tmax Median) of 6 h and a Tmax ([1]; 192 mg, read-out: CSF Tmax Min, Max) of 2.03 to 6.01 h. The Tmax ([1]; 384 mg, read-out: CSF Tmax Median) was 5 h, the Tmax ([1]; 384 mg, read-out: CSF Tmax Min, Max) was 2.5 to 8.01 h and the “ratio of concentration in CSF to IC50 of c-Abl inhibition” value ([1]; therapeutically effective amount) was “not less than 1”. For the same compound, the IC50 [2] was 0.8 nM, the IC50 [3] was 8 nM and the “increase in exposure, capsule to powder (96 to 192 mg or 192 to 384 mg)” value [4] was “approximately 1.4 fold”.
